Test results from patent publication US20110245759A1, “Methods of Treating An Infection with Nitric Oxide” (NITRIC BIOTHERAPEUTICS, INC., priority 2008, published 2011).

How the values were obtained:
[1] = system: coagulase-negative Staphylococci (CNS); experiment: Full-thickness porcine wounds infected with bacteria, treated with nitric oxide with or without oxygen (Example 1); type: in vivo, pig
mild tinea pedis = experiment: Single-site clinical trial of gaseous nitric oxide in mild tinea pedis (Example 10); type: in vivo, human; conditions: 1% gaseous nitric oxide in nitrogen, 10 patients, FIG. 14
Description: To evaluate the effectiveness of gaseous nitric oxide treatment against mild tinea pedis, a single-site clinical trial treating 10 human patients with mild tinea pedis was conducted. […] The foot of each patient was fitted with a flexible, plastic boot-like enclosure that was sealed at the mid-calf (see, for example, FIG. 19) and the foot was bathed with 1% gaseous nitric oxide in nitrogen at a fixed flow of 1 liter per minute for a total of 2 hours divided over 5 treatment days. Gas entered the boot-like enclosure near the toe region with passive diffusion from the enclosure into a well-ventilated examination room. On day 1, patients were treated for 10 minutes. On day 2, patients were treated for 20 minutes. On each of days 3, 4 and 5, patients were treated for 30 minutes. On days 0, 1, 2, 3, 4, 5 and 12, each patient was assessed by a podiatrist blinded to the patient's treatment group and given a clinical symptom severity score ranging from 0 to 64. The clinical symptom severity score is determined by scoring each of 8 categories (i.e., fissures/cracks, yellow crusting (ruptured blisters), maceration (white moist skin), pruritus (itching), scaling, erythema, vesicles/blisters and burning) on an 8-point scale (i.e., 0=absent, 1-2 mild, 3-5 moderate and 6-8 severe). […]

[2] = system: moderate-severe interdigital and/or moccasin-type tinea pedis; experiment: Single-site placebo-controlled clinical trial of gaseous nitric oxide in moderate-severe tinea pedis (Example 11); type: in vivo, human; conditions: 1% nitric oxide
Description: To evaluate the effectiveness of gaseous nitric oxide treatment against moderate-severe interdigital and/or moccasin-type tinea pedis, a single-site, placebo-controlled clinical trial treating≧50 evaluable human patients with moderate-severe interdigital tinea pedis was conducted. […] The foot of each patient was fitted with a flexible, plastic boot-like enclosure that was sealed at the mid-calf (see, for example, FIG. 19) and the foot was bathed with 1% gaseous nitric oxide in nitrogen, or 1% gaseous nitric oxide and 20% oxygen in nitrogen, or placebo (i.e., nitrogen) at a fixed flow of 1 liter per minute for 40 minutes each day for each of three consecutive days, Gas entered the boot-like enclosure near the toe region with passive diffusion from the enclosure into a well-ventilated examination room. Each foot of each patient was fitted with an air-tight, ankle-high covering […] On days 1, 3 and 12, each patient was assessed by a podiatrist blinded to the patient's treatment group and given a clinical symptom severity score ranging from 0 to 64.

[3] = system: Human head lice, permethrin(kdr)-resistant SF-HL strain; experiment: Gas chamber bioassay on human head louse females and eggs (Example 13); conditions: for lice killed: adult female lice, 1 liter/minute
Description: The ability of nitric oxide or nitric oxide+oxygen to kill human head louse females and eggs was evaluated using gas chamber bioassay.
Human head lice from the permethrin(kdr)-resistant SF-HL strain were used in a nitric oxide gas bioassay to determine louse mortality at different exposure intervals. Adult female lice and aged eggs (6-8 day old) were used in all bioassays. The lice or eggs were placed in the bottom of a sterile disposable Petri dishes (60×20 mm) and left uncovered. The dish with lice or eggs was placed inside a polyethylene bag and the bag was taped shut with HY-TAPE® (HY-TAPE Intl., Patterson, N.Y.) to seal the chamber and to minimize the volume of gas inside the chamber. The treatments used were either nitric oxide, in combination with oxygen mixed in equal parts at a final concentration of 10,000 ppm nitric oxide and 20% oxygen, or a treatment with nitric oxide alone at 10,000 ppm in nitrogen both with a flow rate of 1 liter/minute. The gas tank was connected to the chamber with PVC tubing and plastic connectors. The nitric oxide, in combination with oxygen, was mixed in the tubing before the chamber inlet. The chamber outlet was also connected with PVC tubing and fed to a NO scrubber to trap the NO gas leaving the chamber. Additionally, tufts of human hair (blond and brown) were placed inside the chamber for a 30 minute exposure interval to nitric oxide+oxygen to assess discoloration of the hair for cosmetic purposes.

[4] = mixture of 1000 ppm nitric oxide and 21% oxygen; cited from earlier work
[5] = 30 minute exposure interval, 10,000 ppm nitric oxide

For `[N]=O` [nitric oxide], the “amount of total bacteria in biopsies taken from the center of the wounds” value ([1]; 10,000 ppm nitric oxide, p<0.05, FIG. 10) was “significant decrease”, the “average decrease of total bacteria in center biopsies, compared with nitric oxide in combination with oxygen” value ([1]; pig, in vivo) was “smaller decrease” and the “average clinical symptom severity score (0 to 64) during treatment” value (mild tinea pedis; 1 liter per minute, 2 hours over 5 treatment days) was “began to decrease on the second day of treatment and continued to decrease until the fifth day of treatment”. For the same compound, the “average clinical symptom severity score on day 12, seven days after the last treatment” value (mild tinea pedis) was “remained as low as it was on day 5”, the “clinical symptom severity score on day 3 compared with day 1” value ([2]; 40 minutes each day for three days, all patients treated) was “lower on day 3 than on day 1” and the “clinical symptom severity score on day 12 compared with day 3” value ([2]; 40 minutes each day for three days, most patients treated) was “lower clinical symptom severity score on day 12 than on day 3”. The “patients with interdigital tinea who reached the primary clinical endpoint score of ≦8” value ([2]; of the 13 patients with interdigital tinea) was 8 patients, the “ovicidal activity on aged eggs (6-8 days old)” value [3, 5] was “not ovicidal” and the lice killed ([3]; 10 minute exposure interval, 10,000 ppm nitric oxide) was “did not kill any”. For the same compound, the lice killed [3, 5] was “did not kill any”, the egg hatchability ([3]; aged eggs (6-8 days old), 30 minute exposure interval, compared with untreated control eggs) was “not different from untreated control eggs” and the “time for half of the nitric oxide to react to become nitric dioxide” value [4] was “about 3.5 minutes”.
